Test results reported in patent US5073572A, “Bioactive metabolites from cribrochalina vasculum” (Harbor Branch Oceanographic Institution, Inc., priority 1990, dated 1991).
Converted amounts (≈) assume the structure as drawn.

What was measured:
[1] = test system: A549 lung tumor cells; test: antiproliferative effect against A549 lung tumor cells (MTT); assay type: cell-based; details: human lung tumor cells, mean ± S.D., n in parentheses
Method: (§1) The crude ethanolic extract and essentially pure compound were tested for toxicity against murine P388 leukemia cells and cells derived from human colon (HT-29) and lung (A549) tumors. P388 cells obtained from Dr. J. Mayo, National Cancer Institute, Bethesda Md., were maintained in Roswell Park Memorial Institute (RPMI) medium 1640 supplemented with 10% horse serum. HT-29 and A-459 human tumor cells were obtained from the American Type Culture Collection (Rockville, Md.) and maintained in RPMI medium 1640 supplemented with 10% fetal bovine serum. All cell lines were cultured in plastic tissue culture flasks and kept in an incubator at 37° C. in humidified air containing 5% CO2. Antibiotic-free stock cultures of P388 cells were subcultured to 10^5 cells/ml by dilution in fresh growth medium at 2 to 3 day intervals. The mean generation time of primary P388 cultures was 14 to 17 hr. HT-29 and A549 cells were subcultured after dissociation with trypsin-EDTA at weekly intervals.
(§2) To assess the antiproliferative effects of agents against P388, HT-29, and A549 cells, 200 μl cultures (96-well tissue culture plates, Nunc, Denmark) were established at 1×10^5 cells/ml (4000 cells/cm^2 for HT-29 and A549) in drug-free medium or medium containing the crude extract at a final dilution of 1:500 of test compound at various concentrations. Solvent for all dilutions was methanol, which was removed from plates under vacuum. All experimental cultures were initiated in medium containing Gentamicin sulfate ([…]; Schering Corporation, Kenilworth, N.J.). After 48-h exposures, P388 cells were enumerated using 3-[4,5-Dimethylthiazol-2-yl]-2,5-diphenyltetrazolium bromide (MTT) as described below (Alley, M. C., et al.[1988] Cancer Res. 48:589).
(§3) To quantitate the effects on cell proliferation, 75 μl of warm growth medium containing 5 mg/ml MTT was added to each well and cultures were returned to the incubator for 90 minutes. To spectrophotometrically quantitate MTT, plates were centrifuged (900×g, 5 minutes), culture fluids removed by aspiration, and 200 μl of acidified isopropanol (2 ml concentrated HCl/liter isopropanol) added per well. The absorbance of the resulting solutions were measured at 570 nm with a plate reader (MR700 Microplate Reader, Dynatech, Laboratories, Chantilly, Va.). […] A linear relationship between tumor cell number and formazan produced was found over the range of cell densities observed in these experiments.

[2] = test system: P388 leukemia cells; test: antiproliferative effect against P388 leukemia cells (MTT); assay type: cell-based; details: Mus musculus; murine P388 leukemia cells, 48-h exposure; mean ± S.D., n in parentheses
Method: as §1, §2, §3

[3] = lymphocyte viability (LCV) assay; assay type: cell-based, murine; details: mouse, splenocytes, percentage of positive LCV control (no compound)
Method: The pure compounds were tested for immunosuppressive effects in the MLR assay and for specific cytotoxicity effects in the lymphocyte viability (LCV) assay both using murine splenocytes. Cellular proliferation was determined using incorporation of ^3 H-thymidine and a modified form of the M. T. T. assay (Mosmann, T. [1983] "Rapid colorimetric assay for cellular growth and survival: Application to proliferation and cytotoxicity assays," J. Immunol. Methods, 65:55-63). Responses were reported as a percent of the positive MLR or LCV control. As a general rule, a low MLR value combined with a high LCV value indicates immunosuppressive activity.
^b Viability (LCV) of lymphocytes as measured by metabolism of M.T.T.
Results are expressed as a percentage of the positive LCV control respons

[4] = test system: murine splenocytes; test: two-way mixed lymphocyte reaction (MLR); assay type: cell-based; details: Mus musculus, Splenocyte, percentage of positive MLR control (no compound); for activity at 0.01 µg/well: 0.01 ug/well; for activity at 0.1 µg/well: 0.1 ug/well; for activity at 1 µg/well: 1 ug/well; for activity at 10 µg/well: 10 ug/well
Method: The crude ethanolic extract was tested in the two-way mixed lymphocyte reaction (MLR) and a CV-1 cytotoxicity assay at a 1X concentration of the crude extract, using murine splenocytes. Cellular proliferation was measured using incorporation of ^3 H-thymidine.
The pure compounds were tested for immunosuppressive effects in the MLR assay and for specific cytotoxicity effects in the lymphocyte viability (LCV) assay both using murine splenocytes. […] Responses were reported as a percent of the positive MLR or LCV control. As a general rule, a low MLR value combined with a high LCV value indicates immunosuppressive activity.
^a Twoway murine mixed lymphocyte response. Results are expressed as
percentage of the positive MLR control response (no compound).

[5] = test system: HT-29 colon tumor cells; test: antiproliferative effect against HT-29 colon tumor cells (MTT); assay type: cell-based; details: human colon tumor cells, mean ± S.D., n in parentheses
Method: as §1, §2, §3

IC50 [1] | IC50 [2] | IC50 [5] | Structure (SMILES) | viability ([3]; 0.01 ug/well) | viability ([3]; 0.1 ug/well) | viability ([3]; 1 ug/well) | viability ([3]; 10 ug/well) | activity at 0.01 µg/well [4] | activity at 0.1 µg/well [4] | activity at 1 µg/well [4] | activity at 10 µg/well [4]
1.6 ± 0.1 µg/mL (≈ 5.47 µM) | 1.21 ± 0.73 µg/mL (≈ 4.14 µM) | 1.66 ± 0.47 µg/mL (≈ 5.68 µM) | C#CC(O)C=CCCCCCCCCCCCCCCC (stereo not drawn) [SP10098] | 80% | 61% | 21% | 2% | 24% | 0% | 0% | 0%
1.75 ± 0.06 µg/mL (≈ 5.49 µM) | 1.23 ± 0.53 µg/mL (≈ 3.86 µM) | 1.66 ± 0.15 µg/mL (≈ 5.21 µM) | C#CC(O)C=CCCCCCCCCCC=CCCCCCC (stereo not drawn) [SP10099] | 67% | 34% | 13% | 22% | 33% | 0% | 0% | 0%
1.56 ± 0.06 µg/mL (≈ 5.09 µM) | 1.58 ± 0.51 µg/mL (≈ 5.15 µM) | 0.86 ± 0.06 µg/mL (≈ 2.81 µM) | C#CC(O)C=CCCCCCCCCCCC(C)CCCC (stereo not drawn) [SP10100] | 78% | 42% | 12% | 8% | 21% | 0% | 0% | 0%
2.3 ± 0.7 µg/mL (≈ 7.5 µM) | 1.44 ± 0.28 µg/mL (≈ 4.7 µM) | 1.06 ± 0.11 µg/mL (≈ 3.46 µM) | C#CC(O)C=CCCCCCCCCCCCCCC(C)C (stereo not drawn) [SP10101] | 82% | 49% | 7% | 10% | 21% | 0% | 0% | 
2.9 ± 0.34 µg/mL (≈ 8.72 µM) | 1.63 ± 0.29 µg/mL (≈ 4.9 µM) | 1.46 ± 0.06 µg/mL (≈ 4.39 µM) | C#CC(O)C=CCCCCCCCCCC=CCCCCC(C)C (stereo not drawn) [SP10102] | 67% | 45% | 15% | 0% | 20% | 0% | 0% | 0%
